ChEMBL document CHEMBL5108072, “Discovery of Chlorofluoroacetamide-Based Covalent Inhibitors for Severe Acute Respiratory Syndrome Coronavirus 2 3CL Protease” (J Med Chem, 2022)

What was measured:
SARS-CoV-2 [1] = assay: microbe, parasite or virus in culture; details: Severe acute respiratory syndrome coronavirus 2, omicron TY38-873 BA.2, HEK-293T
SARS-CoV-2 [2] = assay: microbe, parasite or virus in culture; details: Severe acute respiratory syndrome coronavirus 2, omicron TY38-873 BA.1, HEK-293T

| Structure (SMILES) | EC50 (SARS-CoV-2 [1]) [nM] | EC50 (SARS-CoV-2 [2]) [nM] |
| --- | --- | --- |
| CC(C)C[C@H](NC(=O)c1cc2c(F)cccc2[nH]1)C(=O)NN(C[C@H]1CCNC1=O)C(=O)[C@H](F)Cl | 131 | 58.7 |
| CC(C)C[C@H](NC(=O)c1cc2c(F)cccc2[nH]1)C(=O)NN(C[C@@H]1CCNC1=O)C(=O)[C@H](F)Cl | 17.1 | 9.01 |
| CC(C)C[C@H](NC(=O)c1cc2c(F)cccc2[nH]1)C(=O)NN(C[C@@H]1CCNC1=O)C(=O)[C@@H](F)Cl | 126 | 35.6 |
| COc1cccc2[nH]c(C(=O)N[C@@H](CC(C)C)C(=O)NN(C[C@H]3CCNC3=O)C(=O)[C@H](F)Cl)cc12 | 121 | 58.8 |
| COc1cccc2[nH]c(C(=O)N[C@@H](CC(C)C)C(=O)NN(C[C@@H]3CCNC3=O)C(=O)[C@H](F)Cl)cc12 | 18.3 | 10.1 |
| O=c1nc(NO)ccn1[C@@H]1O[C@H](CO)[C@@H](O)[C@H]1O [N-HYDROXYCYTIDINE] | 336 | 574 |
| COc1cccc2[nH]c(C(=O)N[C@@H](CC(C)C)C(=O)N[C@@H](C[C@@H]3CCNC3=O)C(=O)CO)cc12 [PF-00835231] | 832 | 775 |
